From US11596639B2, “Substituted indole Mcl-1 inhibitors” (Vanderbilt University, priority 2016, dated 2023) come the findings set out here.

In assay [1] the test system is H929 human cancer cell lines. As to the kind of experiment: Cellular viability / proliferation (Cell TiterGlo, 72 h). The class given is cell-based. In outline: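 Plating is at 1,000 cells/well in 10% FBS medium; after 24 h, compound is added as a 2-fold series starting at 50 μM with under 1% DMSO.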
For another assay, the target named is Mcl-1 (Homo sapiens (Human), UniProt Q07820). As to the kind of experiment: Fluorescence polarization anisotropy (FPA) competition assay, FITC-Bak or FITC-Bim BH3 peptide. It is filed as binding. As to conditions: read-out: Ki for Inhibition of Mcl-1 by FPA assay.
Sequence of Mcl-1 (Q07820 172-327): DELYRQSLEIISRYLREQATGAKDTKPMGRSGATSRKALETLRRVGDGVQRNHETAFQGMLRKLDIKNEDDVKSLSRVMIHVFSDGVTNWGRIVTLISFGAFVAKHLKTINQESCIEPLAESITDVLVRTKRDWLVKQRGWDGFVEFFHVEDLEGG
Where [2] appears, read: Homo sapiens, NCI-H929, 72 h, read-out: GI50 on cellular proliferation of H929 human cancer cell lines, H929 cells, 72 h, Cell TiterGlo, 10% FBS.
Setting [3] is: H929 cells, 72 h, Cell TiterGlo, 10% FBS, read-out: GI50 on cellular proliferation of H929 human cancer cell lines.

Each structure is given as a SMILES string. Where two headings read alike, the source gives them in different places.

A word on the Ki: it is the equilibrium dissociation constant of an inhibitor or competing ligand from its target. `Cc1cc(OCCCc2c3n(c4c(-c5c(C)nn(C)c5C)c(Cl)ccc24)[C@H](C)CN(c2cccc4cc(C(=O)O)n(Cc5nccs5)c24)C3=O)cc(C)c1Cl` [Example 298, 7-[(4R)-7-chloro-10-[3-(4-chloro-3,5-dimethyl-phenoxy)propyl]-4-methyl-1-oxo-6-(1,3,5-trimethylpyrazol-4-yl)-3,4-dihydropyrazino[1,2-a]indol-2-yl]-1-(thiazol-2-ylmethyl)indole-2-carboxylic acid]: in assay [1] (setting [2]), the GI50 was determined as 290 nM. For the same compound, the Ki on Mcl-1 was less than 1 nM.
In the case of `Cc1cc(OCCCc2c3n(c4c(-c5c(C)nn(C)c5C)c(Cl)ccc24)[C@H](C)CN(c2ccc(OCc4ccccc4)c4c2cc(C(=O)O)n4C)C3=O)cc(C)c1Cl` [Example 299, (P, R)-7-(benzyloxy)-4-(7-chloro-10-(3-(4-chloro-3,5-dimethylphenoxy)propyl)-4-methyl-1-oxo-6-(1,3,5-trimethyl-1H-pyrazol-4-yl)-3,4-dihydropyrazino[1,2-a]indol-2(1H)-yl)-1-methyl-1H-indole-2-carboxylic acid], the GI50 in assay [1] (setting [3]) came to 2300 nM. Further, the Ki at Mcl-1 is 2 nM.
For the compound `Cc1cc(OCCCc2c3n(c4c(-c5c(C)nn(C)c5C)c(Cl)ccc24)[C@H](C)CN(c2cccc4cc(C#N)n(C)c24)C3=O)cc(C)c1Cl` [Example 300, 7-[(4R)-7-chloro-10-[3-(4-chloro-3,5-dimethyl-phenoxy)propyl]-4-methyl-1-oxo-6-(1,3,5-trimethylpyrazol-4-yl)-3,4-dihydropyrazino[1,2-a]indol-2-yl]-1-methyl-indole-2-carbonitrile], the GI50 in assay [1] (setting [2]) worked out at 5900 nM. Besides, the Ki at Mcl-1 was found to be 2 nM.
For the compound `Cc1cc(OCCCc2c3n(c4c(-c5c(C)nn(C)c5C)c(Cl)ccc24)[C@H](C)CN(c2cccc4c2cc(C#N)n4C)C3=O)cc(C)c1Cl` [Example 301, 4-[(4R)-7-chloro-10-[3-(4-chloro-3,5-dimethyl-phenoxy)propyl]-4-methyl-1-oxo-6-(1,3,5-trimethylpyrazol-4-yl)-3,4-dihydropyrazino[1,2-a]indol-2-yl]-1-methyl-indole-2-carbonitrile], the GI50 in assay [1] (setting [2]) came to 8300 nM. The inhibitory constant (Ki) on Mcl-1 was 2.8 nM.
Turning to `COc1ccc(N2C[C@@H](C)n3c(c(CCCOc4cc(C)c(Cl)c(C)c4)c4ccc(Cl)c(-c5c(C)ncnc5C)c43)C2=O)c2c1cc(C(=O)O)n2Cc1ccccn1` [Example 302, 7-[(4R)-7-chloro-10-[3-(4-chloro-3,5-dimethyl-phenoxy)propyl]-6-(4,6-dimethylpyrimidin-5-yl)-4-methyl-1-oxo-3,4-dihydropyrazino[1,2-a]indol-2-yl]-4-methoxy-1-(2-pyridylmethyl)indole-2-carboxylic acid], the GI50 in assay [1] (setting [2]) is less than 200 nM. Also, the Ki on Mcl-1 was less than 1 nM.
For `Cc1cc(OCCCc2c3n(c4c(-c5c(C)nn(C)c5C)c(Cl)ccc24)[C@H](C)CN(c2cccc4cc(C(=O)O)n(Cc5cscn5)c24)C3=O)cc(C)c1Cl` [Example 304, 7-[(4R)-7-chloro-10-[3-(4-chloro-3,5-dimethyl-phenoxy)propyl]-4-methyl-1-oxo-6-(1,3,5-trimethylpyrazol-4-yl)-3,4-dihydropyrazino[1,2-a]indol-2-yl]-1-(thiazol-4-ylmethyl)indole-2-carboxylic acid], in assay [1] (setting [2]), the GI50 was 370 nM. Moreover, the Ki on Mcl-1 was less than 1 nM.
With `Cc1cc(OCCCc2c3n(c4c(-c5c(C)nn(C)c5C)c(Cl)ccc24)[C@H](C)CN(c2cc(O)cc4c2cc(C(=O)O)n4C)C3=O)cc(C)c1Cl` [Example 305, (M, R)-4-(7-chloro-10-(3-(4-chloro-3,5-dimethylphenoxy)propyl)-4-methyl-1-oxo-6-(1,3,5-trimethyl-1H-pyrazol-4-yl)-3,4-dihydropyrazino[1,2-a]indol-2(1H)-yl)-6-hydroxy-1-methyl-1H-indole-2-carboxylic acid], in assay [1] (setting [3]), the GI50 was 6200 nM. On Mcl-1, the Ki was less than 1 nM.
For `Cc1cc(OCCCc2c3n(c4c(-c5c(C)nn(CCN6CCCC6)c5C)c(Cl)ccc24)[C@H](C)CN(c2cn(C)c4cc(C(=O)O)ccc24)C3=O)cc(C)c1Cl` [Example 306, (R)-3-(7-chloro-10-(3-(4-chloro-3,5-dimethylphenoxy)propyl)-6-(3,5-dimethyl-1-(2-(pyrrolidin-1-yl)ethyl)-1H-pyrazol-4-yl)-4-methyl-1-oxo-3,4-dihydropyrazino[1,2-a]indol-2(1H)-yl)-1-methyl-1H-indole-6-carboxylic acid], in assay [1] (setting [2]), the GI50 is 600 nM. For the same compound, the Ki at Mcl-1 was 1.3 nM.
Consider `Cc1cc(OCCCc2c3n(c4c(-c5c(C)nn(C)c5C)c(Cl)ccc24)[C@H](C)CN(c2cccc4c2cc(-c2nn[nH]n2)n4C)C3=O)cc(C)c1Cl` [Example 307, (4R)-7-chloro-10-[3-(4-chloro-3,5-dimethyl-phenoxy)propyl]-4-methyl-2-[1-methyl-2-(2H-tetrazol-5-yl)indol-4-yl]-6-(1,3,5-trimethylpyrazol-4-yl)-3,4-dihydropyrazino[1,2-a]indol-1-one], for which, in assay [1] (setting [2]), the GI50 was 3500 nM. In addition, the Ki at Mcl-1 was 1.3 nM.
As for `Cc1cc(OCCCc2c3n(c4c(-c5c(C)nn(CC6CCOCC6)c5C)c(Cl)ccc24)[C@H](C)CN(c2cn(C)c4cc(C(=O)O)ccc24)C3=O)cc(C)c1Cl` [Example 308, (R)-3-(7-chloro-10-(3-(4-chloro-3,5-dimethylphenoxy)propyl)-6-(3,5-dimethyl-1-((tetrahydro-2H-pyran-4-yl)methyl)-1H-pyrazol-4-yl)-4-methyl-1-oxo-3,4-dihydropyrazino[1,2-a]indol-2(1H)-yl)-1-methyl-1H-indole-6-carboxylic acid], the GI50 in assay [1] (setting [2]) was determined as 410 nM. Besides, the inhibition constant Ki on Mcl-1 was less than 1 nM.
In the case of `Cc1cc(OCCCc2c3n(c4c(-c5c(C)nn(CCN(C)C)c5C)c(Cl)ccc24)[C@H](C)CN(c2cn(C)c4cc(C(=O)O)ccc24)C3=O)cc(C)c1Cl` [Example 309, (R)-3-(7-chloro-10-(3-(4-chloro-3,5-dimethylphenoxy)propyl)-6-(1-(2-(dimethylamino)ethyl)-3,5-dimethyl-1H-pyrazol-4-yl)-4-methyl-1-oxo-3,4-dihydropyrazino[1,2-a]indol-2(1H)-yl)-1-methyl-1H-indole-6-carboxylic acid], the GI50 in assay [1] (setting [2]) was determined as 530 nM. For the same compound, at Mcl-1, the Ki is less than 1 nM.
Consider `Cc1cc(OCCCc2c3n(c4c(-c5c(C)nn(C)c5C)c(Cl)ccc24)[C@H](C)CN(c2cc(OCc4ccccc4)cc4c2cc(C(=O)O)n4C)C3=O)cc(C)c1Cl` [Example 310, (M, R)-6-(benzyloxy)-4-(7-chloro-10-(3-(4-chloro-3,5-dimethylphenoxy)propyl)-4-methyl-1-oxo-6-(1,3,5-trimethyl-1H-pyrazol-4-yl)-3,4-dihydropyrazino[1,2-a]indol-2(1H)-yl)-1-methyl-1H-indole-2-carboxylic acid], for which, in assay [1] (setting [3]), the GI50 was determined as 8900 nM. Besides, the Ki on Mcl-1 was found to be 1.5 nM.
Consider `Cc1cc(OCCCc2c3n(c4c(-c5c(C)nn(C)c5C)c(Cl)ccc24)[C@H](C)CN(c2cccc4cc(C(=O)O)n(Cc5cncnc5)c24)C3=O)cc(C)c1Cl` [Example 311, 7-[(4R)-7-chloro-10-[3-(4-chloro-3,5-dimethyl-phenoxy)propyl]-4-methyl-1-oxo-6-(1,3,5-trimethylpyrazol-4-yl)-3,4-dihydropyrazino[1,2-a]indol-2-yl]-1-(pyrimidin-5-ylmethyl)indole-2-carboxylic acid], for which the GI50 in assay [1] (setting [2]) amounted to 3400 nM. In addition, the Ki at Mcl-1 was less than 1 nM.
Consider `Cc1cc(OCCCc2c3n(c4c(-c5c(C)nn(C)c5C)c(Cl)ccc24)[C@H](C)CN(c2ccc(OCc4ccccc4)c4c2cc(C(=O)O)n4C)C3=O)cc(C)c1Cl` [Example 312, (M, R)-7-(benzyloxy)-4-(7-chloro-10-(3-(4-chloro-3,5-dimethylphenoxy)propyl)-4-methyl-1-oxo-6-(1,3,5-trimethyl-1H-pyrazol-4-yl)-3,4-dihydropyrazino[1,2-a]indol-2(1H)-yl)-1-methyl-1H-indole-2-carboxylic acid], for which, in assay [1] (setting [3]), the GI50 stood at 5700 nM. Also, the Ki on Mcl-1 came to 1.9 nM.
In the case of `COc1ccc(N2C[C@@H](C)n3c(c(CCCOc4cc(C)c(Cl)c(C)c4)c4ccc(Cl)c(-c5c(C)nn(C)c5C)c43)C2=O)c2c1cc(C(=O)O)n2Cc1ccccn1` [Example 313, 7-[(4R)-7-chloro-10-[3-(4-chloro-3,5-dimethyl-phenoxy)propyl]-4-methyl-1-oxo-6-(1,3,5-trimethylpyrazol-4-yl)-3,4-dihydropyrazino[1,2-a]indol-2-yl]-4-methoxy-1-(2-pyridylmethyl)indole-2-carboxylic acid], the GI50 in assay [1] (setting [2]) was less than 200 nM. The inhibition constant Ki on Mcl-1 was less than 1 nM.
As for `Cc1nc(Cn2c(C(=O)O)cc3cccc(N4C[C@@H](C)n5c(c(CCCOc6cc(C)c(Cl)c(C)c6)c6ccc(Cl)c(-c7c(C)nn(C)c7C)c65)C4=O)c32)no1` [Example 314, 7-[(4R)-7-chloro-10-[3-(4-chloro-3,5-dimethyl-phenoxy)propyl]-4-methyl-1-oxo-6-(1,3,5-trimethylpyrazol-4-yl)-3,4-dihydropyrazino[1,2-a]indol-2-yl]-1-[(5-methyl-1,2,4-oxadiazol-3-yl)methyl]indole-2-carboxylic acid], the GI50 in assay [1] (setting [2]) stood at 930 nM. Moreover, the Ki on Mcl-1 was less than 1 nM.
For `Cc1nnc(Cn2c(C(=O)O)cc3cccc(N4C[C@@H](C)n5c(c(CCCOc6cc(C)c(Cl)c(C)c6)c6ccc(Cl)c(-c7c(C)nn(C)c7C)c65)C4=O)c32)o1` [Example 315, 7-[(4R)-7-chloro-10-[3-(4-chloro-3,5-dimethyl-phenoxy)propyl]-4-methyl-1-oxo-6-(1,3,5-trimethylpyrazol-4-yl)-3,4-dihydropyrazino[1,2-a]indol-2-yl]-1-[(5-methyl-1,3,4-oxadiazol-2-yl)methyl]indole-2-carboxylic acid], the GI50 in assay [1] (setting [2]) worked out at 2800 nM. Further, the Ki on Mcl-1 was less than 1 nM.
